US8987220B2, “Production of reprogrammed cells with restored potential” (Nupotential, Inc., priority 2005, dated 2015)
Entries after “also recorded” stand apart in the source; their conditions may differ.

Experiments:
[1] = tested on: bovine somatic cells; assay: ATRA followed by adipogenic induction cocktail
[2] = tested on: primary rat hepatocytes; assay: ATRA and adipogenic induction cocktail on primary hepatocytes; type: cell-based
Protocol: Primary rat hepatocytes were grown in media treated with 50-200 nM ATRA. Following treatment, cells were cultured under the same comparative conditions as described above for the bovine somatic cells, except an adipogenic induction cocktail (as described in EXAMPLE 2) was added to the T-75 flasks.

[3] = tested on: 3T3 L1 cells; assay: ATRA followed by osteogenic induction media; type: cell-based, murine
Protocol: 3T3 L1 cells were grown in media treated with 50-200 nM ATRA. Following ATRA treatment, cells were transferred to 6-well plates and exposed to osteogenic induction media containing DMEM, FBS, ascorbic acid 2-phosphate, dexamethasone, beta glycerophosphate, and vitamin D for 21 days.

[4] = tested on: Oct4, Sox2 and nanog; assay: RT-PCR for stem cell/pluripotency markers after ATRA; type: cell-based, bovine; conditions: after ATRA treatment, data not shown
Protocol: To determine whether differentiation potential was restored, bovine somatic cells were cultured in T-75 flasks until confluent in CON, DMSO, or ATRA media (same RA as in Example 1).

[5] = tested on: GNMT; assay: GNMT gene expression by real-time RT-PCR (GNMT/GAPD ratio); type: cell-based, bovine
[6] = tested on: bovine serial nuclear transfer donor somatic cells; assay: Relative methylated cytosine by reverse-phase HPLC after ATRA treatment; type: cell-based; conditions: 10-50 nM ATRA, cultured until confluent
Protocol: Bovine serial nuclear transfer donor somatic cells (a cell line that has never produced a successful live animal and which is characterized by low blastocyst development rates (<10%, P<0.001) and low pregnancy initiation rates (<1%, P<0.05)) were cultured in T-75 flasks until confluent in growth media (CON), or growth media treated with DMSO, or ATRA (DMSO vehicle); 10 nM, 50 nM, and 100 nM ATRA concentrations were used. Following […] treatment, the cells were collected and DNA from the cells was isolated. The DNA was then completely digested into single nucleotides for reverse-phase HPLC. Reverse-phase HPLC was performed as described by Cezar et al. to measure the relative levels of methylated cytosine residues.

[7] = 50-200 nM ATRA then osteogenic induction 21 days

CC1=C(/C=C/C(C)=C/C=C/C(C)=C/C(=O)O)C(C)(C)CCC1 [ATRA, all-trans retinoic acid]
oil red-O staining (lipid) ([1]; ATRA then adipogenic induction 11-12 days): positive
PPARγ gene expression (adipocyte differentiation marker) ([1]; PCR after induction, data not shown): induction
cell morphology during exposure to ATRA ([1]; structures similar to embryoid bodies): significant morphological changes
cell proliferation (confluency) ([2]; 50-200 nM ATRA then adipogenic induction media, day 4): proliferated significantly
cell morphology ([2]; 50-200 nM ATRA, pronounced within 48 hours of induction media): Morphological changes
alizarin staining for calcium phosphate mineralization [3, 7]: positive staining; also recorded: calcium phosphate mineralization
alkaline phosphatase staining for osteoblast-like cells [3, 7]: positive staining
osteocalcin and cbfa1 expression (osteoblast-specific markers) ([3]; RT-PCR after ATRA and osteogenic induction): induction
expression of Oct4, Sox2 and nanog [4]: upregulation and strong expression
GNMT gene expression (ratio of GNMT to GAPD) ([5]; ATRA-treated growth media, real-time RT-PCR): upregulation
response of GNMT transcription to ATRA ([5]; prior experiments): dose response
reduction in methylated cytosine compared to CON [6]: 8-10%
